A short description of series [1]: Wash test: malodor marker reduction on artificial body soil treated fabric, headspace GCMS. Conditions: Table 5, vs control detergent nil antioxidant. As to the method:
In order to test the efficiency of the antioxidants for malodor reduction, an artificial body soil (ABS) was prepared. The artificial body soil is a modified version of the soil from ASTM D4265-21. To prepare the ABS, the components of Table 1 were combined in an 8 oz. jar and heated to 70° C. until fully solubilized.
50/50 Cotton/poly interlock fabric (Style 7439 GB, Testfabrics, Inc.) was cut into 2 in×5 in swatches. Cut swatches were dosed with three equally spaced 0.36 mL portions of artificial body soil composition. Fabrics were then sealed together in a mylar bag and incubated at 37° C. for four to seven days prior to wash treatment.
Antioxidant solution was prepared by dissolving the antioxidant compound to be tested in methanol at 0.5% w/w. The antioxidant solution was dosed into the wash water (500 mL) using a micropipettor according to Table 3 to obtain the desired concentration of antioxidant in wash water required for the testing.
To 1 L wash beaker was added 0.4 g Tide Free and Gentle detergent, 500 mL of wash water (as prepared in Table 2) and the antioxidant solution as described in Table 3. The wash beaker was placed in a tergetometer. To the wash beaker was added two incubated fabric swatches (4 g) followed by one 11 in×11 in 50/50 Cotton/Poly interlock knit clean fabric swatch (16 g, Style 74390B, Testfabrics, Inc.), for a total liquor to fabric ratio of 25:1. The fabrics were then washed in the tergotometer for 15 minutes and spun dried for one minute in a spin dryer (Mini Spin Dryer Model LASD-1 available from The Laundry Alternative, Inc.). […] The tests were run in triplicate and an average malodor reduction percent was calculated. […]
The percent malodor reduction is determined by GCMS using an Agilent Intuvo 9000 GC equipped with an Agilent 7000D GC/TQ mass spectrometer and a Trajan PAL 3 RTC sampler equipped with a solid phase micro-extraction (SPME) probe. […] The extracted ion chromatogram for 3-methyl-2-butenal includes Quantifier: 84, Qualifier: 55, Ratio: 35.7. […]

Series [2] in a line: Stability of antioxidants in AATCC HE liquid detergent (crystallization/precipitation). The class given is physicochemical. Particulars: room temperature, after 3 days. The source says: A comparison of the stability of the antioxidants in standard AATCC detergent was made to highlight the benefit of having a plurality of molecules. Due to the highly crystalline nature of many commercially available antioxidants, they tend to be incompatible in detergent and will crystallize out of the detergent over time. The inventive compounds of this invention show improvements in remaining stable in liquid detergent.
The antioxidants in table 6 were combined with AATCC HE liquid detergent without optical brighteners (available from Test Fabrics, Inc., Item #0501001) in a 20 mL glass scintillation vial. The vials were placed in a sonicator for 1 hour, then heated to 80° C. for 30 minutes, whereby all samples were completely dissolved. The samples were removed from the oven, swirled briefly and hand then allowed to cool to room temperature. When the vials were cooled down to room temperature, the bottom of the vials were scratched with a metal spatula a few times to aide in the crystallization process, which can take a long time if left undisturbed. After an additional 3 days, observations were recorded as crystallization present or not present in Table 6.

As to `Cc1cc(CCC(=O)OCCOCCOCCOC(=O)CCc2cc(C)c(O)c(C(C)(C)C)c2)cc(C(C)(C)C)c1O` [Irganox 245, 2-[2-(2-{3-[3-(tert-Butyl)-4-hydroxy-5-tolyl]propionoxy}ethoxy)ethoxy]ethyl 3-[3-(tert-butyl)-4-hydroxy-5-tolyl]propionate], the “% Malodor marker reduction” value in series [1] (2 ppm in wash water) is 44.0%; in series [1] (4 ppm in wash water) it was 74.4%; in series [1] (8 ppm in wash water), 89.5%. Further, the “Precipitation Seen” value is reported as “No” in series [2] (loading 500 ppm in AATCC detergent), “No” in series [2] (loading 1000 ppm in AATCC detergent), “Yes” in series [2] (loading 5000 ppm in AATCC detergent) and “Yes” in series [2] (loading 10000 ppm in AATCC detergent).

These data come from patent US20230089534A1, “PHENOLIC COMPOSITIONS FOR MALODOR REDUCTION” (Milliken & Company, priority 2021, published 2023).
